Results published in publication PMC12550136, “Functional and structural characterization of F1 ‐ATPase with common ancestral core domains in stator ring” (Protein Science : A Publication of the Protein Society, 2025).

Tested on: T1, F1 ^anc_core
T1 construct: gene atpD; alpha: TF1 residues 1-94 + alpha^anc NBD/CTD; beta: TF1 residues 1-78 + beta^anc NBD/CTD; N-terminal His-tags; alpha3beta3gamma; expressed in E. coli JM103 delta-unc; with ATP synthase gamma chain
Assay: single-molecule rotation assay, […] nm gold colloid, Michaelis-Menten fit
Format: biochemical, synthetic construct
Conditions: 50 mM Hepes-KOH pH 7.5, 100 mM KCl

Row | Km (5 mM MgCl2, ATP-regenerating system, room temperature) | Km (5 mM MgCl2, room temperature) | Structure (SMILES)
1 | 2.6 µM |  | Nc1ncnc2c1ncn2[C@@H]1O[C@H](COP(=O)(O)OP(=O)(O)OP(=O)(O)O)[C@@H](O)[C@H]1O [ATP]
2 |  | 0.68 µM | Nc1ncnc2c1ncn2[C@@H]1O[C@H](COP(=O)(O)OP(=O)(O)OP(O)(O)=S)[C@@H](O)[C@H]1O [ATPγS]
